The results in this text go back to US20260265222A1, “1H-PYRROLE-2-AMIDE DERIVATIVE, PHARMACEUTICAL COMPOSITION AND METHOD FOR TREATING AND/OR PREVENTING YTHDC1-RELATED DISEASES” (priority 2023, published 2026).

This test addresses T1, GST-YTHDC1 (345-509) protein (Homo sapiens, UniProt Q96MU7).
T1 construct: GST-YTHDC1 (345-509) protein
Nature of the test: Fluorescence polarization-based in vitro enzyme-level test against YTHDC1. The test is classed as binding. The conditions noted are these: read-out: IC50 (Inhibitory Activity against YTHDC1). On the technique in general: Fluorescence polarisation rises when a labelled molecule tumbles more slowly, as on binding a larger partner.

Setting [1] is: 30 nM GST-YTHDC1 (345-509), FAM-labeled m6A-modified single-stranded oligonucleotide, 18° C., 4 hours.

What is called IC50 is the concentration that inhibits the measured activity by half.

Read-outs that look alike come from different tables or passages of the source. Some results are limits rather than exact numbers.

As to `O=C(Nc1ccc(-c2cnc(N3CCN(S(=O)(=O)C4CC4)CC3)o2)cc1)c1cc(C(=O)C2C=CC=CC2Br)c[nH]1` (stereo not shown) [Compound 87], under setting [1], the half-maximal inhibitory concentration (IC50) came to 2320 nM. Consider `O=C(Nc1cccnc1)c1cc(C(=O)c2c(F)cc(F)cc2Br)c[nH]1` [Compound 3], for which the IC50 under setting [1] is > 50000 nM.

In the case of `O=C(Nc1ccc(OC(F)(F)F)cc1)c1cc(C(=O)c2ccccc2C(F)(F)F)c[nH]1` [Compound 17], the IC50 under setting [1] is 42 nM. Consider `O=C(Nc1ccc(-c2cnc(N3CCN(C4COC4)CC3)o2)cc1)c1cc(C(=O)c2ccccc2C(F)(F)F)c[nH]1` [Compound 88], for which, under setting [1], the IC50 amounted to 71.2 nM.

On to `COc1ccc(CNc2ccccc2C(=O)c2c[nH]c(C(=O)Nc3ccc(-c4cnco4)cc3)c2)cc1` [Compound 130], for which, under setting [1], the half-inhibitory concentration (IC50) was ≥ 50000 nM. For the molecule `CCc1ccccc1C(=O)c1c[nH]c(C(=O)Nc2cccnc2)c1` [Compound 11], the 50% inhibitory concentration (IC50) under setting [1] is 1570 nM.

In the case of `O=C(Nc1ccc(-c2cncnc2)cc1)c1cc(C(=O)c2ccccc2C(F)(F)F)c[nH]1` [Compound 102], under setting [1], the IC50 was 86 nM. For the molecule `O=C(Nc1ccc(-c2cncs2)cc1)c1cc2c(-c3ccccc3OC(F)F)nccc2[nH]1` [Compound 63], the IC50 under setting [1] was 394 nM. Consider `O=C(Nc1ccc(C(=O)N2CCC3(CC2)OCc2ccccc23)cc1)c1cc(C(=O)c2ccccc2C(F)(F)F)c[nH]1` [Compound 120], for which the half-maximal inhibitory concentration (IC50) under setting [1] was ≥ 50000 nM. Regarding `O=C(Nc1ccc(-c2cnco2)cc1)c1cc(C(=O)c2ccccc2N2CCCCCC2)c[nH]1` [Compound 140], the IC50 under setting [1] is 134 nM. Still for that read-out and setting: then `CN(CCO)c1cc(NC(=O)c2cc(C(=O)c3ccccc3C(F)(F)F)c[nH]2)ccc1-c1cnco1` [Compound 99], with 258 nM.

Turning to `O=C(Nc1ccc(-c2cncs2)cc1)c1cc2c(-c3c[nH]nc3C(F)(F)F)nccc2[nH]1` [Compound 54], the IC50 under setting [1] is > 50000 nM. Still for that read-out and setting: then `CS(=O)(=O)c1ccccc1-c1nccc2cc(C(=O)Nc3ccc(-c4cncs4)cc3)[nH]c12` [Compound 50], with 67 nM. Still for that read-out and setting: then `CC(C)(C)c1ccccc1C(=O)c1c[nH]c(C(=O)Nc2cccnc2)c1` [Compound 10], with 2010 nM; and `O=C(Nc1ccc(C(F)(F)F)cc1)c1cc(C(=O)c2ccccc2C(F)(F)F)c[nH]1` [Compound 18], with 39 nM; and `O=C(Nc1cccnc1)c1cc(C(=O)c2ccccc2F)c[nH]1` [Compound 7], with > 50000 nM. With `O=C(Nc1ccc(-c2ccccn2)cc1)c1cc(C(=O)c2ccccc2C(F)(F)F)c[nH]1` [Compound 22], the concentration for half-maximal inhibition (IC50) under setting [1] turned out to be 23 nM. On the same count and under the same terms, then `O=C(Nc1ccc(-c2cnco2)cc1)c1cc(C(=O)c2ccccc2N2CCCC2=O)c[nH]1` [Compound 121], with 25 nM; and `O=C(Nc1ccc(-c2cnco2)cc1)c1cc(C(=O)c2ccccc2N2CCC(c3ccccc3)C2)c[nH]1` (stereo not shown) [Compound 151], with 1560 nM. On the same count and under the same terms, then `O=C(c1ccc(C(F)(F)F)cc1)c1c[nH]c(C(=O)Nc2ccc(-c3cncs3)cc2)c1` [Compound 39], with > 50000 nM. The same measure, in the same setting: then `CC(C)(C)OC(=O)N1CCN(c2ncc(-c3ccc(NC(=O)c4cc(C(=O)C5C=CC=CC5Br)c[nH]4)cc3)o2)CC1` (stereo not shown) [Compound 84], with > 50000 nM; and `CS(=O)(=O)c1ccccc1-c1ncc(F)c2[nH]c(C(=O)Nc3ccc(-c4cncs4)cc3)cc12` [Compound 58], with 80 nM; and `O=C(Nc1ccc(-c2cnco2)cc1)c1cc(C(=O)c2ccccc2N2CCCC2)c[nH]1` [Compound 128], with 23 nM. On to `Cc1cc(-c2cnco2)ccc1NC(=O)c1cc(C(=O)c2ccccc2C(F)(F)F)c[nH]1` [Compound 95], for which, under setting [1], the IC50 is 39 nM. Consider `CN1C(=O)Cc2cc(-c3ccc(NC(=O)C4=CC(C(=O)c5ccccc5C(F)(F)F)CN4)cc3)ccc21` (stereo not shown) [Compound 107], for which the IC50 under setting [1] came out at 22 nM. On the same count and under the same terms, then `O=C(Nc1ccc(-c2cncs2)cc1)c1cc2c(-c3ccccc3F)nccc2[nH]1` [Compound 53], with > 50000 nM. On the same count and under the same terms, then `CN(C)CCOc1cc(NC(=O)c2cc(C(=O)c3ccccc3C(F)(F)F)c[nH]2)ccc1-c1cnco1` [Compound 98], with 15 nM. Regarding `N#Cc1ccccc1-c1nccc2[nH]c(C(=O)Nc3ccc(-c4cncs4)cc3)cc12` [Compound 43], the IC50 under setting [1] turned out to be 3900 nM. Same read-out and setting: then `O=C(Nc1ccc2c(c1)OCC1CNCCN21)c1cc(C(=O)c2ccccc2C(F)(F)F)c[nH]1` (stereo not shown) [Compound 91], with 937 nM; and `COc1ccccc1C(=O)c1c[nH]c(C(=O)Nc2cccnc2)c1` [Compound 9], with 10600 nM; and `C[C@@H]1CN(c2ccccc2C(=O)c2c[nH]c(C(=O)Nc3ccc(-c4cnco4)cc3)c2)C[C@H](C)O1` [Compound 147], with 190 nM. On the same count and under the same terms, then `O=C(Nc1ccc2c(c1)CCN2c1ccccc1)c1cc(C(=O)c2ccccc2C(F)(F)F)c[nH]1` [Compound 133], with 747 nM. On the same count and under the same terms, then `O=C(Nc1ccc(-c2cnco2)cc1)c1cc(C(=O)c2ccccc2N2CC3CCC2CO3)c[nH]1` (stereo not shown) [Compound 134], with 99 nM; and `O=C(Nc1ccc(C(F)(F)F)c(F)c1)c1cc(C(=O)c2ccccc2C(F)(F)F)c[nH]1` [Compound 113], with 54 nM. In the case of `O=C(Nc1ccc(-c2cnc(N3CCC3)o2)cc1)c1cc(C(=O)c2ccccc2C(F)(F)F)c[nH]1` [Compound 104], the 50% inhibitory concentration (IC50) under setting [1] is 9 nM.

In the case of `O=C(Nc1ccc(-c2cncs2)cc1)c1cc2c(-c3ccccc3N3CCOCC3)nccc2[nH]1` [Compound 56], under setting [1], the IC50 was 928 nM.

As to `CCN(C)c1ccccc1C(=O)c1c[nH]c(C(=O)Nc2ccc(-c3cnco3)cc2)c1` [Compound 127], the IC50 under setting [1] came out at 13 nM. Same read-out and setting: then `O=C(Nc1ccc(-c2cnc(N3CCOCC3)o2)cc1)c1cc(C(=O)c2ccccc2C(F)(F)F)c[nH]1` [Compound 77], with 67 nM; and `O=C(Nc1ccc(-c2cncs2)cc1)c1cc2c(-c3ccccc3-c3ccccc3)nccc2[nH]1` [Compound 64], with 1130 nM; and `O=C(Nc1ccc(-c2cnc(N3CC(F)C3)s2)cc1)c1cc(C(=O)c2ccccc2C(F)(F)F)c[nH]1` [Compound 34], with 22 nM. As to `O=C(Nc1ccc(-c2cccnc2)cc1)c1cc(C(=O)c2ccccc2C(F)(F)F)c[nH]1` [Compound 23], the IC50 under setting [1] stood at 47 nM. As for `O=C(Nc1ccc(-c2cnc(N3CCCCC3)s2)cc1)c1cc(C(=O)c2ccccc2C(F)(F)F)c[nH]1` [Compound 37], the half-inhibitory concentration (IC50) under setting [1] amounted to 335 nM.

With `O=C(Nc1ccc(-c2cnco2)cc1)c1cc(C(=O)c2ccccc2C(F)(F)F)c[nH]1` [Compound 105], the IC50 under setting [1] came out at 9.7 nM. In the case of `O=C(Nc1cccnc1)c1cc(C(=O)c2c(Br)ccc(F)c2F)c[nH]1` [Compound 4], the IC50 under setting [1] is > 50000 nM. Regarding `O=C(Nc1ccc(-c2cnco2)cc1)c1cc(C(=O)c2ccccc2N2CC(F)C2)c[nH]1` [Compound 153], the IC50 under setting [1] came out at 14 nM.

`CCOC(=O)c1ccc(NC(=O)c2cc(C(=O)c3ccccc3C(F)(F)F)c[nH]2)cc1` [Compound 20]: the 50% inhibitory concentration (IC50) under setting [1] turned out to be 23 nM. The same measure, in the same setting: then `O=C(Nc1ccccc1)c1cc(C(=O)c2ccccc2C(F)(F)F)c[nH]1` [Compound 12], with 120 nM; and `COc1cnccc1-c1nccc2[nH]c(C(=O)Nc3ccc(-c4cncs4)cc3)cc12` [Compound 46], with > 50000 nM. On the same count and under the same terms, then `CS(=O)(=O)c1ccccc1-c1nccc2[nH]c(C(=O)Nc3ccc(-c4cnco4)cc3)cc12` [Compound 62], with 280 nM. The same measure, in the same setting: then `CCN(C)c1ncc(-c2ccc(NC(=O)c3cc(C(=O)c4ccccc4C(F)(F)F)c[nH]3)cc2)o1` [Compound 103], with 14 nM; and `CN(C)c1ccccc1-c1nccc2[nH]c(C(=O)Nc3ccc(-c4cncs4)cc3)cc12` [Compound 61], with 2510 nM; and `O=C(Nc1ccc(-c2cnc(N3CCCC3)s2)cc1)c1cc(C(=O)c2ccccc2C(F)(F)F)c[nH]1` [Compound 36], with 13 nM. For the molecule `CN(C)c1ncc(-c2ccc(NC(=O)c3cc4c(-c5ccccc5S(C)(=O)=O)nccc4[nH]3)cc2)o1` [Compound 71], the IC50 under setting [1] is > 50000 nM. Same read-out and setting: then `CN(C)c1cc(NC(=O)c2cc(C(=O)c3ccccc3C(F)(F)F)c[nH]2)ccc1-c1cnco1` [Compound 97], with 50.9 nM; and `O=C(Nc1ccc(-c2cnc(N3CCN(CCO)CC3)o2)cc1)c1cc(C(=O)c2ccccc2Br)c[nH]1` [Compound 86], with 847 nM. Same read-out and setting: then `O=C(Nc1cccc(C(F)(F)F)c1)c1cc(C(=O)c2ccccc2C(F)(F)F)c[nH]1` [Compound 115], with 2640 nM; and `O=C(Nc1ccc(-c2ccsc2)cc1)c1cc(C(=O)c2ccccc2C(F)(F)F)c[nH]1` [Compound 26], with 64 nM. For the molecule `O=C(Nc1ccc(-c2cncs2)cc1)c1cc2c(-c3ccccc3OC3CC3)nccc2[nH]1` [Compound 67], under setting [1], the IC50 is > 50000 nM. In the case of `O=C(Nc1ccc(-c2cnc(N3CCOCC3)o2)cc1)c1cc(C(=O)c2ccccc2Br)c[nH]1` [Compound 78], the 50% inhibitory concentration (IC50) under setting [1] stood at 123 nM. As to `O=C(Nc1ccc(-c2cnco2)cc1)c1cc(C(=O)c2ccccc2C2CCCC2)c[nH]1` [Compound 146], under setting [1], the IC50 turned out to be 21 nM. For `C[Si]1(C)CCN(c2ccccc2C(=O)c2c[nH]c(C(=O)Nc3ccc(-c4cnco4)cc3)c2)CC1` [Compound 122], the IC50 came out at 83 nM. As for `O=C(Nc1ccc(-c2cnco2)cc1)c1cc(C(=O)c2ccccc2N2CCC(F)C2)c[nH]1` (stereo not shown) [Compound 137], the IC50 under setting [1] was 11 nM. Same read-out and setting: then `O=C(Nc1ccc(-c2cnc(N3CCN(C4COC4)CC3)o2)cc1)c1cc(C(=O)c2ccccc2Br)c[nH]1` [Compound 85], with 234 nM. For the molecule `CN1CCN2c3ccc(NC(=O)c4cc(C(=O)c5ccccc5C(F)(F)F)c[nH]4)cc3OCC2C1` (stereo not shown) [Compound 92], the IC50 under setting [1] was found to be 409 nM. Same read-out and setting: then `O=C(Nc1ccc(-c2ccccc2)cc1)c1cc(C(=O)c2ccccc2C(F)(F)F)c[nH]1` [Compound 21], with 71 nM.

Regarding `O=C(Nc1ccccc1F)c1cc(C(=O)c2ccccc2C(F)(F)F)c[nH]1` [Compound 13], the IC50 under setting [1] came to 612 nM. Take `COc1cc(NC(=O)c2cc(C(=O)c3ccccc3C(F)(F)F)c[nH]2)ccc1C(F)(F)F` [Compound 114]: under setting [1], the concentration for half-maximal inhibition (IC50) was 16 nM.
